Data set [1] concerns ZR75-1 human breast cancer cells. The data set is described as follows: Soft agar growth of ZR75-1 cells. It is filed as cell-based. The procedure: (§1) Cells (10^4 cells/well) were seeded in 0.5 ml of 0.3% Difco Noble agar (Difco, Detroit, Mich.) supplemented with complete culture medium. This suspension was layered over 0.5 ml of 0.8% agar-medium base layer in 24 multiwell cluster dishes (Becton Dickinson) and treated with various concentrations of docetaxel (day 0). […] Twelve days after the last treatment, cells were stained with nitroblue tetrazolium (Sigma) and colonies larger than 0.05 mm were counted.
as §1
Soft agar growth. Cells (10^4 cells/well) were seeded in 0.5 ml of 0.3% Difco Noble agar (Difco, Detroit, Mich.) supplemented with complete culture medium. This suspension was layered over 0.5 ml of 0.8% agar-medium base layer in 24 multiwell cluster dishes (Becton Dickinson) and treated with various concentrations of docetaxel (day 0). The HYB 165 was added after 12 hrs (day 1) and on day 3. Twelve days after the last treatment, cells were stained with nitroblue tetrazolium (Sigma) and colonies larger than 0.05 mm were counted.
Soft agar growth. Cells (10^4 cells/well) were seeded in 0.5 ml of 0.3% Difco Noble agar (Difco, Detroit, Mich.) supplemented with complete culture medium. This suspension was layered over 0.5 ml of 0.8% agar-medium base layer in 24 multiwell cluster dishes (Becton Dickinson) and treated with various concentrations of docetaxel (day 0). The HYB 508 was added after 12 hrs and on day 2, 3 and 4. After 12 days the cells were stained with nitroblue tetrazolium (Sigma) and colonies larger than 0.05 mm were counted.
Soft agar growth. Cells (10^4 cells/well) were seeded in 0.5 ml of 0.3% Difco Noble agar (Difco, Detroit, Mich.) supplemented with complete culture medium. […] After 12 days the cells were stained with nitroblue tetrazolium (Sigma) and colonies larger than 0.05 mm were counted.
Soft agar growth. Cells (10^4 cells/well) were seeded in 0.5 ml of 0.3% Difco Noble agar (Difco, Detroit, Mich.) supplemented with complete culture medium. This suspension was layered over 0.5 ml of 0.8% agar-medium base layer in 24 multiwell cluster dishes (Becton Dickinson) and treated with various concentrations of HYB 165 or HYB295 every 48 hours for three times. After 12 days the cells were stained with nitroblue tetrazolium (Sigma, St. Louis, Mo.) and colonies larger than 0.05 mm were counted.
Soft agar growth. Cells (10^4 cells/well) were seeded in 0.5 ml of 0.3% Difco Noble agar (Difco, Detroit, Mich.) supplemented with complete culture medium. This suspension was layered over 0.5 ml of 0.8% agar-medium base layer in 24 multiwell cluster dishes (Becton Dickinson) and treated with various concentrations of HYB 165 or HYB508 every 48 hours for three times. After 12 days the cells were stained with nitroblue tetrazolium (Sigma, St. Louis, Mo.) and colonies larger than 0.05 mm were counted.

The subject of data set [2] is Factor VIII related antigen. The data set is described as follows: Tumor-induced neovascularization (anti-Factor VIII related antigen immunohistochemistry). Format: in vivo. The settings on record: single agent, vs untreated mice or scramble MBO. An excerpt:
In recent years, the critical role of tumor-induced neovascularization in neoplastic development, progression and metastasis has been elucidated (J. I. Fokman, In: J. Mendelsohn et al., eds., The Molecular Basis of Cancer, pp 206–232, Philadelphia: W B Saunders (1995) . A reliable histologic estimate of novel blood vessels on tumor specimens is the microvessel count (MVC) in the most intense areas of neovascularization. In the present study, tumor-induced neovascularization was quantified by immunohistochemistry using an anti-Factor VIII related antigen monoclonal antibody (N. Weidner, Breast Cancer Res. Treat., 36:169–180 (1995)).

Data set [3] relates to GEO human colon cancer cells. The data set is described as follows: Soft agar growth of GEO cells. It is filed as cell-based. The procedure: Cells (10^4 cells/well) were seeded in 0.5 ml of 0.3% Difco Noble agar (Difco, Detroit, Mich.) supplemented with complete culture medium. This suspension was layered over 0.5 ml of 0.8% agar-medium base layer in 24 multiwell cluster dishes (Becton Dickinson) and treated with various concentrations of paclitaxel (day 0). The HYB 165 was added after 12 hrs (day 1) and on day 2, 3 and 4. 12 days after the last treatment, cells were stained with nitroblue tetrazolium (Sigma) and colonies larger than 0.05 mm were counted.

The subject of a further data set is AR. The data set is described as follows: Histochemical analysis of GEO tumors: AR. Format: in vivo. As to conditions: single agent, after two cycles. The source says: (§2) Tumor specimens from the different groups of mice were examined by histochemical analysis at different time points to evaluate the expression of a variety of biological parameters.
(§3) TGFα and AR are growth factors which bind to EGFR and control human colon cancer growth through autocrine and paracrine mechanisms (F. Ciardiello and G. Tortora, Clin. Cancer Res. 4:821–828 (1998); D. S. Salomon, Crit. Rev. Oncol. Hematol. 19:183–232 (1995)).

Another data set deals with TGFα. The data set is described as follows: Histochemical analysis of GEO tumors: TGFα. It is filed as in vivo. The settings on record: single agent, after two cycles.
Source text: as §2, §3

For another data set, the system named is p27. The data set is described as follows: Histochemical analysis of GEO tumors: p27. Format: in vivo. As to conditions: single agent. The source says:
Tumor specimens from the different groups of mice were examined by histochemical analysis at different time points to evaluate the expression of a variety of biological parameters. […] No other treatment was able to affect RIα expression.
Loda et al. (Nature Medicine 3:231–234 (1997)) discloses that the cyclin-dependent kinase (CDK) inhibitor p27 is […] related to cell entry into S phase and proliferation and that reduction of its expression correlates with poor prognosis in colon cancer patients.

For data set [4], the system named is GEO colon cancer xenografts. The data set is described as follows: GEO colon cancer xenografts in nude mice (tumor growth, survival). Format: in vivo. As to conditions: single agent. The procedure: We investigated the antitumor activity of HYB 165 (AS RIα) in nude mice bearing GEO colon cancer xenografts, using either the intraperitoneal (i.p.) or the oral route of administration. When established GEO tumors of approximately […] were detectable, groups of 10 mice were treated i.p. with either HYB 165 or a control modified backbone oligonucleotide with a scrambled sequence, at 5 or 10 mg/kg/dose, daily on days 7 to 11 and 14 to 18. […] The control oligonucleotide produced no inhibition at 10 mg/kg/dose.
Following oral administration, modified backbone oligonucleotides (MBOs) are absorbed in the upper and lower part of the GI tract and distributed to major organs (S. Agrawal and R. Zhang, In: Antisense Research and Application, S. T. Crooke, ed.), Handbook of Experimental Pharmacology, Springer, Berlin, p. 525–543 (1998). Therefore, HYB 165 and the control oligonucleotide were administered to GEO tumor-bearing mice as described above, except that HYB 165 and the control oligonucleotide were administered orally.
On day 7 after tumor cell injection, one group of 10 mice was treated with taxol (20 mg/kg/dose, i.p.), and the treatment was repeated every 2 weeks (on day 21 and day 35) for a total of three cycles. Two other groups of mice were treated with either HYB 165 (AS RIα) or a control MBO with a scrambled sequence (10 mg/kg/dose, p.o.), daily for five days (days 8–12). Treatment was repeated every 2 weeks (days 22–26 and days 36–40) for a total of three cycles. Two more groups of mice were treated with taxol and either HYB 165 or the control MBO, administering the taxol (20 mg/kg/dose, i.p.) on day 7, followed by oral administration of either HYB 165 or the control MBO daily for five days (days 8–12). The sequential treatment was repeated with the same schedule every 2 weeks for a total of three cycles.

Data set [5] deals with LS-174T human colon carcinoma cells. The data set is described as follows: LS-174T tumor growth and antisense treatment. As to conditions: single s.c. dose 1 mg per mouse, FIG. 1. Format: in vivo, athymic mice. The procedure: LS-174T human colon carcinoma cells (1×10^6 cells) were inoculated subcutaneously (s.c.) into the left flank of athymic mice. A single dose of RIα antisense hybrid (Oligo 165, SEQ ID NO:4), inverted hybrid (Oligo 166, SEQ ID NO:6), or antisense (Oligo 164, SEQ ID NO:1) oligonucleotides or control oligonucleotide (Oligo 169, SEQ ID NO:7); Oligo 168 (SEQ ID NO:5); Oligo 188, (SEQ ID NO:3) as shown in Table 1 (1 mg per 0.1 ml saline per mouse), or saline (0.1 ml per mouse), was injected s.c. into the right flank of mice when tumor size reached 80 to 100 mg, about 1 week after cell inoculation. Tumor volumes were obtained from daily measurement of the longest and shortest diameters and calculation by the formula, 4/3πr^3 where r=(length+width)/4. At each indicated time, two animals from the control and antisense-treated groups were killed, and tumors were removed and weighed.

The inhibition is the percentage by which the read-out fell short of the control. With `CC(=O)O[C@@]12CO[C@@H]1C[C@H](O)[C@@]1(C)C(=O)[C@H](O)C3=C(C)[C@@H](OC(=O)[C@H](O)[C@@H](NC(=O)OC(C)(C)C)c4ccccc4)C[C@@](O)([C@@H](OC(=O)c4ccccc4)[C@H]21)C3(C)C` [docetaxel, reference compound], the inhibition at 10 pM was below 12% in data set [1] (Homo sapiens, ZR-75-1, docetaxel 0.01 nM alone (Examples 13, 14)) and below 15% in data set [1] (Homo sapiens, ZR-75-1, docetaxel 0.01 nM alone (Examples 21, 22)). Besides, the inhibition at 30 pM in data set [1] (Homo sapiens, ZR-75-1, docetaxel 0.03 nM alone (Examples 21, 22)) is around 40%. The compound also showed an inhibition at 0.0001 µM in data set [1] (Homo sapiens, ZR-75-1, docetaxel 0.1 nM alone (Examples 21, 22)) of around 72%. Also, the inhibition at 0.0003 µM in data set [1] (Homo sapiens, ZR-75-1, docetaxel 0.3 nM alone (Examples 21, 22)) is around 85%. Moreover, the growth inhibition entry in data set [1] (docetaxel alone, doses ranging between 0.01 and 0.3 nM, maximum) is on record as “up to 80%”.

As to `CC(=O)O[C@H]1C(=O)[C@@]2(C)[C@H]([C@H](OC(=O)c3ccccc3)[C@]3(O)C[C@H](OC(=O)[C@H](O)[C@@H](NC(=O)c4ccccc4)c4ccccc4)C(C)=C1C3(C)C)[C@]1(OC(C)=O)CO[C@@H]1C[C@@H]2O` [paclitaxel, reference compound], in data set [2], the “inhibition of staining (microvessel count)” value is “over 60%”. The compound also gave an inhibition at 0.001 µM in data set [3] (Homo sapiens, paclitaxel 1 nM alone) below 5%. Besides, in data set [3] (Homo sapiens, paclitaxel 5 nM alone), the inhibition at 0.005 µM was around 20%. This compound also showed an inhibition at 0.01 µM in data set [3] (Homo sapiens, paclitaxel 10 nM alone) of around 58%. In data set [3] (paclitaxel alone, doses ranging between 0.1 and 10 nM, maximum), the growth inhibition result is reported as “up to 60%”. Besides, the “expression of AR” value with AR is “Unlike taxol, treatment with HYB 165 inhibited the expression of TGF α and AR”. For the same compound, the “expression of TGFα” value in the data set on TGFα was “Unlike taxol, treatment with HYB 165 inhibited the expression of TGF α and AR”. The p27 expression entry in the data set with p27 is “Unlike taxol, HYB 165 alone is able to increase p27 expression”. In addition, the tumor growth result in data set [4] (three cycles (taxol 20 mg/kg/dose i.p.; MBO 10 mg/kg/dose p.o.), FIG. 17A) is listed as “inhibited tumor growth”. Besides, the survival time result in data set [4] (three cycles, FIG. 17B) was “slight increase in survival time”.

As for “Oligo 166: Inverted hybrid antisense 18-mer GCG TGC CUC CUC ACT GGC, SEQ ID NO:6 (antisense GCGTGCCUCCUCACTGGC; inverted hybrid: 2'-O-methyl ribonucleotide middle segment, DNA flanks, exact positions not given here)”, the “size of the tumor” value in data set [5] is reported as “smaller from three days after injection onward than the phosphorothioate oligonucleotide 164”.

“Oligo 168: Mismatched hybrid control GCG CGC CTC CTC GCU GGC, SEQ ID NO:5 (GCGCGCCTCCTCGCUGGC; hybrid: 2'-O-methyl ribonucleotide ends, DNA middle, exact positions not given here) [reference compound]”: the “size of the tumor” value in data set [5] is “little ability to keep tumor size at a minimum relative to the hybrid and inverted hybrid oligonucleotides”.
